Measured values published in PMC10394516, “The pharmacokinetic profile of brensocatib and its effect on pharmacodynamic biomarkers including NE, PR3, and CatG in various rodent species” (Frontiers in Pharmacology, 2023).

Assays:
NE [1] = experiment: Bone marrow NE activity after repeated dosing, Wistar rats; format: in vivo; conditions: for Reduction of NE activity vs vehicle / Change From Vehicle Control (%) NE: 7 days
Experimental: Briefly, animals were weighed and randomized into different treatment groups. In total, three different dosing levels of brensocatib were tested in each species and strain; each QD dosing level was equivalent to 1.5-times the matching daily BID dose. For BID dosing, the second daily dose was administered 8-h post the morning dose. C57BL/6 mice were dosed either BID or QD for 7 consecutive days at 0/0, 0.5/0.75, 2/3, and 20/30 mg/kg/day (BID/QD). BALB/c mice were dosed for 7 consecutive days at 0/0, 0.2/0.3, 2/3, and 20/30 mg/kg/day (BID/QD). SD rats were dosed for 9 consecutive days at 0/0, 0.2/0.3, 2/3, and 20/30 mg/kg/day (BID/QD). Wistar rats were dosed for 7 consecutive days at 0/0, 0.2/0.3, 2/3, and 20/30 mg/kg/day (BID/QD).
At the completion of the study, animals were sacrificed 16–24 h post their final dose. The hind limb bones (femurs and tibias) were collected at necropsy for bone marrow analysis of NSP activities by kinetic enzymatic assays ([Basso et al., 2022]). See section Quantification of Bone Marrow NSP Activities for details.
(§1) For the mice, each animal had the femurs and tibias of both hind limbs harvested. For the rat, the femur and tibia from a single hind limb per animal was harvested. Bones were kept on wet ice until processing for bone marrow collection. In brief, bone cutters were used to cut the epiphysis (knobby ends) off the long bones to expose the bone marrow filled cavity. Each bone cavity was then flushed with 5 mL/bone (mouse) or 10 mL/bone (rat) of ice-cold RPMI media through a […] and collected in a 50-mL conical tube. Cells were spun down at 2,500 × g at 4°C for 5 min and the supernatant was aspirated. After which, bone marrow cells were lysed with 1X red blood cell (RBC) lysis buffer (Abcam, ab204733) to eliminate contaminating RBCs and washed with PBS to remove any residual RBC lysis buffer. The resulting white blood cells (WBC) were subsequently lysed with 1% (v/v) Triton X-100 in PBS. Lysates were added to 96-well plates and stored at −80°C until NSP analyses.
(§2) Bone marrow lysates prepared as described above were diluted and plated onto 96-well assay plates to quantify NSP activities as described previously ([Basso et al., 2022]). Briefly, peptide substrates for NE (N-Methoxysuccinyl-Ala-Ala-Pro-Val-7-amido-4-methylcoumarin; Sigma; St. Louis, MO; Excitation/Emission at 350/450 nm), PR3 ((7-Methoxycoumarin-4-yl)acetyl-lysyl-(picolinoyl)-Tyr-Asp-Ala-Lys-Gly-Asp-N-3-(2-4-dinitrophenyl)-2-3-diaminopropyonyl-NH2); GenScript; Piscataway, NJ; Excitation/Emission at 340/430 nm), and CatG (N-Succinyl-Ala-Ala-Pro-Phe p nitroanilide; Sigma; Absorbance at 405 nm) were added at a final assay concentration of 100 μM, 40 μM, and 200 μM, respectively, and either fluorescence or absorbance was quantified using a Synergy microplate reader (BioTek; Winooski, VT). The specific NSP activity in each sample was calculated as the total activity minus the activity in the presence of a specific NSP inhibitor (if used), including elastase inhibitor (Abcam) for NE, sivelestat (Abcam) for PR3, and cathepsin G inhibitor I (Cayman Chemical; Ann Arbor, MI) for CatG. NSP concentrations were interpolated based on their activities relative to the standard curves created using active human NE protein (Sigma), active human PR3 protein (Sigma), and active human CatG protein (Sigma), respectively. Due to unavailability of commercial mouse and/or rat NE, PR3, and CatG proteins, the corresponding human proteins were used instead since their catalytic ability is considered to be conserved across species. A portion of each cell lysate sample was retained for protein quantification using a Pierce™ BCA Protein Assay Kit (Thermo Fisher). The NSP activities were normalized for the cell lysate protein concentrations.
The Pierce™ BCA Protein Assay Kit was used to measure the total protein of the samples after lysis to allow for subsequent normalization. […]

PR3 = system: PR3; design: method as in Cipolla et al., 2023; conditions: Phase 2 trial in NCFBE (WILLOW); ref Cipolla et al., 2023; cited from earlier work
NE [2] = experiment: PD recovery study, bone marrow NE activity, C57BL/6 mice; format: in vivo; conditions: for Percent change from vehicle NE: bone marrow
Experimental: A PD recovery study was performed in female C57BL/6 mice dosed BID for 8 consecutive days. Mice were dosed by oral gavage either with vehicle (0 mg/kg) or 5 mg/kg brensocatib (BID; 10 mg/kg/day). After 8 consecutive days of dosing, the animals were maintained without further treatment until prescribed sacrifice (days: 1, 3, 6, 8, and 10 days post final dose). Plasma was collected from animals during the first 24 h of dosing at −0.5 (half-hour prior to dosing), 1, 8, 9, and 24 h post initial dose. Note that the 8- and 24-h plasma samples were prior to the afternoon dose and prior to the second day dose, respectively. Plasma was used for PK analysis via LC-MS/MS. On prescribed days, animals were sacrificed, and the hind limb bones (femurs and tibias) were collected at necropsy for bone marrow analysis of NSP activities by kinetic enzymatic assays.
as §1, §2
The Pierce™ BCA Protein Assay Kit was used to measure the total protein of the samples after lysis to allow for subsequent normalization. The manufacturer’s instructions for use were followed when performing this assay on a portion of the sample lysates which were diluted in PBS, the same diluent as used for preparation of the standard. Plates were read on the Biotek Synergy plate reader with Gen5 software.

[3] = after 8 days of 5 mg/kg BID, curve fit with free min and max

Cn1c(=O)oc2ccc(-c3ccc(C[C@@H](C#N)NC(=O)[C@@H]4CNCCCO4)cc3)cc21 [brensocatib]
Reduction of NE activity vs vehicle (NE [1]; BID highest dose (20 mg/kg/day)): 19% | Reduction of NE activity vs vehicle (NE [1]; QD highest dose (30 mg/kg/day)): 19% | Combined BID and QD percent reduction, NE (NE [1]; highest dose level 20/30 (BID/QD) mg/kg/day): 19% | Change From Vehicle Control (%) NE (NE [1]; oral BID 0.2 mg/kg/day): −6% (p = 0.9661) | Change From Vehicle Control (%) NE (NE [1]; oral BID 2 mg/kg/day): −6% (p = 0.9676) | Change From Vehicle Control (%) NE (NE [1]; oral BID 20 mg/kg/day): −19% (p = 0.4767) | Change From Vehicle Control (%) NE (NE [1]; oral QD 0.3 mg/kg/day): +8% (p = 0.9636) | Change From Vehicle Control (%) NE (NE [1]; oral QD 3 mg/kg/day): +17% (p = 0.7823) | Change From Vehicle Control (%) NE (NE [1]; oral QD 30 mg/kg/day): −19% (p = 0.7283) | sputum PR3 activity (PR3): Dose-dependent reductions | Recovery: Time to reach 50% recovery, NE (NE [2]; [3]): 0.8 days | Recovery: Time to reach 90% recovery, NE (NE [2]; [3]): 4.9 days | Recovery: Time to reach 95% recovery, NE (NE [2]; [3]): 5.6 days | Recovery: Time to reach 100% recovery, NE (NE [2]; [3]): 6.6 days | Percent change from vehicle NE (NE [2]; 1 day recovery after 8 days of 5 mg/kg BID): −49% (p < 0.0001) | Percent change from vehicle NE (NE [2]; 3 days recovery after 8 days of 5 mg/kg BID): −4% (p = 0.9544) | Percent change from vehicle NE (NE [2]; 6 days recovery after 8 days of 5 mg/kg BID): −20% (p = 0.0067) | Percent change from vehicle NE (NE [2]; 8 days recovery after 8 days of 5 mg/kg BID): −2% (p = 0.9986) | Percent change from vehicle NE (NE [2]; 10 days recovery after 8 days of 5 mg/kg BID): +15% (p = 0.0607)
